According to US20260355323A1, “CEREBLON-RECRUITING BCL-XL/BCL-2 DUAL DEGRADERS” (University of Florida Research Foundation, Incorporated, priority 2022, published 2026):

Legend:
[1] = test system: WI-38 NC; assay: Senolytic activity, cell viability (PrestoBlue HS), WI-38 NC; type: cell-based; conditions: for EC50: Homo sapiens, 72 h
Method: WI-38 and HUVEC cells were incubated with increasing concentrations of degraders for 72 h. Cell viability was measured using PrestoBlue HS cell viability reagent.

[2] = test system: MOLT-4 acute lymphoblastic leukemia cells; assay: Cell viability, tetrazolium-based MTS assay, MOLT-4; conditions: Homo sapiens, MOLT-4, 48 h; read-out: Anti-Cancer Activity EC50 (48 hr), MOLT-4
Method: (§1) Acute lymphoblastic leukemia cells (MOLT-4 and RS4;11) were incubated with increasing concentrations of Bcl-xL/Bcl-2 degraders for 48 h. Cell viability was measured by tetrazolium-based MTS assay.

[3] = test system: RS4;11 acute lymphoblastic leukemia cells; assay: Cell viability, tetrazolium-based MTS assay, RS4;11; conditions: Homo sapiens, RS4;11, 48 h, read-out: Anti-Cancer Activity EC50 (48 hr), RS4
Method: as §1

Row | EC50 [2] [nM] | EC50 [3] [nM] | Structure (SMILES) | EC50 [1] [nM] | Senolytic Activity EC50 (72 hr), WI-38 NC [1]
1 | < 1 | < 1 | C[C@@]1(CN2CCC(CCc3ccc4c(c3)CN(C3CCC(=O)NC3=O)C4=O)CC2)CCC(c2ccc(Cl)cc2)=C(CN2CCN(c3ccc(C(=O)NS(=O)(=O)c4ccc(N[C@H](CCN5CCCOCC5)CSc5ccccc5)c(S(=O)(=O)C(F)(F)F)c4)cc3)CC2)C1 (stereo partly drawn) [Compound 46, N-((4-(((R)-4-(1,4-oxazepan-4-yl)-1-(phenylthio)butan-2-yl)amino)-3-((trifluoromethyl)sulfonyl)phenyl)sulfonyl)-4-(4-(((4R)-4′-chloro-4-((4-(2-(2-(2,6-dioxopiperidin-3-yl)-1-oxoisoindolin-5-yl)ethyl)piperidin-1-yl)methyl)-4-methyl-3,4,5,6-tetrahydro-[1,1′-biphenyl]-2-yl)methyl)piperazin-1-yl)benzamide] | > 10000 | 
2 | < 1 | < 1 | CC1CN(c2ccc3c(c2)CN(C2CCC(=O)NC2=O)C3=O)CC(C)N1CC1CCN(C[C@]2(C)CCC(c3ccc(Cl)cc3)=C(CN3CCN(c4ccc(C(=O)NS(=O)(=O)c5ccc(N[C@H](CCN6CCCOCC6)CSc6ccccc6)c(S(=O)(=O)C(F)(F)F)c5)cc4)CC3)C2)CC1 (stereo partly drawn) [Compound 50, N-((4-(((R)-4-(1,4-oxazepan-4-yl)-1-(phenylthio)butan-2-yl)amino)-3-((trifluoromethyl)sulfonyl)phenyl)sulfonyl)-4-(4-(((4R)-4′-chloro-4-((4-((4-(2-(2,6-dioxopiperidin-3-yl)-1-oxoisoindolin-5-yl)-2,6-dimethylpiperazin-1-yl)methyl)piperidin-1-yl)methyl)-4-methyl-3,4,5,6-tetrahydro-[1,1′-biphenyl]-2-yl)methyl)piperazin-1-8 yl)benzamide] |  | ++ (100-10 μM)
3 | < 1 | < 1 | C[C@@]1(CN2CCC(CCN3CCN(c4ccc5c(c4)CN(C4CCC(=O)NC4=O)C5=O)CC3)CC2)CCC(c2ccc(Cl)cc2)=C(CN2CCN(c3ccc(C(=O)NS(=O)(=O)c4ccc(N[C@H](CCN5CCCOCC5)CSc5ccccc5)c(S(=O)(=O)C(F)(F)F)c4)cc3)CC2)C1 (stereo partly drawn) [Compound 65, N-((4-(((R)-4-(1,4-oxazepan-4-yl)-1-(phenylthio)butan-2-yl)amino)-3-((trifluoromethyl)sulfonyl)phenyl)sulfonyl)-4-(4-(((4R)-4′-chloro-4-((4-(2-(4-(2-(2,6-dioxopiperidin-3-yl)-1-oxoisoindolin-5-yl)piperazin-1-yl)ethyl)piperidin-1-yl)methyl)-4-methyl-3,4,5,6-tetrahydro-[1,1′-biphenyl]-2-yl)methyl)piperazin-1-yl)benzamide] | > 10000 | 
4 | < 1 | < 1 | C[C@@]1(CN2CCN(c3ccc4c(c3)CN(C3CCC(=O)NC3=O)C4=O)CC2)CCC(c2ccc(Cl)cc2)=C(CN2CCN(c3ccc(C(=O)NS(=O)(=O)c4ccc(N[C@H](CCN5CCCOCC5)CSc5ccccc5)c(S(=O)(=O)C(F)(F)F)c4)cc3)CC2)C1 (stereo partly drawn) [Compound 127, N-((4-(((R)-4-(1,4-oxazepan-4-yl)-1-(phenylthio)butan-2-yl)amino)-3-((trifluoromethyl)sulfonyl)phenyl)sulfonyl)-4-(4-(((4R)-4′-chloro-4-((4-(2-(2,6-dioxopiperidin-3-yl)-1-oxoisoindolin-5-yl)piperazin-1-yl)methyl)-4-methyl-3,4,5,6-tetrahydro-[1,1′-biphenyl]-2-yl)methyl)piperazin-1-yl)benzamide] | > 10000 | 
